# Experimental data published in EP0719267B1, “SECOND MESSENGER CELL SIGNALING INHIBITORS” (CELL THERAPEUTICS, INC., priority 1993, dated 1994).
# Assays:
# 72 kD MMP = test: Metalloproteinase production in TNF-α stimulated THP-1 cells (zymogram); type: cell-based, human; details: 2.5 µM, TNF-α 18 hours
# Description: (§1) Another assay measures an ability of the inventive compounds, as represented by compound no. 50, to inhibit metalloproteinase production in cancer cells. In the assay protocol, THP-1 human leukemia cells (1-2 x 10^6/35 mm dish) were plated in RPMI medium with 0.5% serum. Inventive compound no. 50 was added at 2.5 µM. Following incubation for 1 hour, TNF-α was added and incubated for 18 hours. The supernatants from control and treated plates were collected and protease activity was determined in gelatin gels (zymogram) after electrophoretic protein separation. […] The presence of compound no. […] Compound no. 50, representative of compounds of the invention, is capable of substantially reducing metastatic potential of cancer cells by blocking metalloprotease production.
# [1] = tested on: 92 kD matrix metalloprotease (MMP); test: as above; type: cell-based, human; details: 2.5 µM, TNF-α 18 hours
# Description: as §1
# B16 melanoma cells = test: B16 melanoma in vivo study: bone marrow toxicity; parameters: species or system mice; details: 10 mg/kg QD or 20 mg/kg QOC
# Description: Figures 41A, 41B and 41C illustrates the results from an in vivo study in mice where B16 melanoma cells were injected intravenously through a tail vein on day 0 and compound no. 50 was administered inter parenterally at 10 mg/kg QD or 20 mg/kg QOC, starting days 1-14. The mice were sacrificed on day 15 and the lungs were dissected and fixed in formalin. In addition bone marrow toxicity was evaluated by measuring neutrophil and platelet counts in the mice on day 15.
# Lewis Lung Carcinoma = Lewis Lung Carcinoma (3LL) in vivo experiment; parameters: species or system BDFI mice
# Description: Figure 43 reports results in an in vivo experiment showing that inventive compound no. […] BDFI mice were injected subcutaneously with 1 x 10^6 3LL cells on day 0 and then treated with inventive compound no. (20 mg/kg i.p.), cyclophosphamide (20 mg/kg) or vehicle on alternate days beginning on day 7. The animals were sacrificed on day 20 and the lung tumors dissected and weighed. Figure 43 illustrates that compound no. […] Figure 44A and 44B illustrates platelet and neutrophil counts, respectively, of the sacrificed mice in the immediately preceding assay. […] 50.
# Swiss/3T3 cells = test: EGF-induced proliferation in Swiss/3T3 cells; type: cell-based; details: 20 ng/ml EGF
# Description: As illustrated in figures 67A and 67B, inventive compound no. 58 inhibited VEGF-induced proliferation in HUVEC and EGF-induced proliferation in Swiss/3T3 cells, respectively. Procedurally, HUVEC were placed in 0.5% serum containing medium prior to stimulation with various concentrations of VEGF, with or without inventive compound no. 58 (5 µM). Twenty four hours later the cells were pulsed with ^3H-TdR and 4 hours later harvested and counted by scintillation. The IC50 for inhibition was approximately 50-100 nM. Swiss 3T3 cells were stimulated with 20 ng/ml EGF and 24 hours later harvested and counted by scintillation.
# [2] = 20 mg/kg i.p. alternate days from day 7, day 20
SMILES,TNF-α-stimulated expression of 72 kD MMP (72 kD MMP),TNF-α-stimulated expression of 92 kD MMP [1],neutrophil and platelet counts (B16 melanoma cells; day 15),"bone marrow toxicity (B16 melanoma cells; days 1-14, day 15)",lung tumor weight compared with cyclophosphamide (20 mg/kg) (Lewis Lung Carcinoma; [2]),tumor growth (Lewis Lung Carcinoma; [2]),"platelet and neutrophil counts (Lewis Lung Carcinoma; 20 mg/kg i.p., sacrificed mice)",IC50 (Swiss/3T3 cells) [nM]
"CCCCCCCCCCCCNCC(O)CCCCCCCCCn1c(=O)c2c(ncn2C)n(C)c1=O (centres unmarked) [compound no. 50, 1-(11-Dodecylamino-10-hydroxyundecyl)-3,7-dmethylxanthine]",blocked the TNF-α-stimulated expression of both the 92 and 72 kD MMPs,blocked the TNF-α-stimulated expression of both the 92 and 72 kD MMPs,increased counts over non-treated control animals,not toxic to the bone marrow,superior results over an existing cancer chemotherapeutic agent,can arrest growth of Lewis Lung Carcinoma in mice,not altered from vehicle,–
"COc1cc(CNCC(O)CCCCCCCCCn2c(=O)c3c(ncn3C)n(C)c2=O)cc(OC)c1OC (centres unmarked) [compound no. 58, 1-[11-(3,4,5-Trimethoxybenzylamino)-10-hydroxyundecyl]-3,7-dimethylxanthine]",–,–,–,–,–,–,–,~20
